The values that follow come from BindingDB's records for doi:10.1107/s0907444999007350 (Berlex, 1999).

What is called Ki is the equilibrium dissociation constant of an inhibitor or competing ligand from its target. High values mean lower affinity, low ones higher affinity.

The test has as its target Coagulation factor X (Homo sapiens, UniProt P00742). As to the kind of experiment: Enzyme Inhibition Assay. To be noted: pH 7.5; 22 °C. As for the experimental part:
The enzyme activities were determined kinetically as the initial rate of cleavage of a peptide p-nitroanilide. Km for enzyme and substrate was determined using four substrate dilutions. Enzyme was incubated with test compounds for 10 min; the reaction was then started by the addition of the substrate. […] IC50 values for inhibitors were determined from the dose response curve by fitting the data to the Hill equation. Ki,app values were calculated as the IC50/2, with the IC50 value determined at a substrate concentration equal to Km

Molecules are shown by their SMILES.

Sequence of Coagulation factor X (P00742 41-179 limits assumed): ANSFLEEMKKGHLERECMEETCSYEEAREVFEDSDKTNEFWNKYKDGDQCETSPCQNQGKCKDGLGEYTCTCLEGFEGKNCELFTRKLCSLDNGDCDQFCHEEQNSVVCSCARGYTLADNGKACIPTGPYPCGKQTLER
Sequence of Coagulation factor X (P00742 235-488 limits assumed): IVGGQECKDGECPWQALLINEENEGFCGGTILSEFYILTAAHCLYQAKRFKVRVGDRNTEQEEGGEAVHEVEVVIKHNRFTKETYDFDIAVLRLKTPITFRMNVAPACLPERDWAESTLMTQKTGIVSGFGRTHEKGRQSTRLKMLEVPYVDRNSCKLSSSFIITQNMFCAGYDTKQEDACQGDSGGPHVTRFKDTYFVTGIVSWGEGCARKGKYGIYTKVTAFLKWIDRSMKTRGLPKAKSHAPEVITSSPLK

On to `Cc1c(F)c(Oc2cccc(C(=N)N)c2)nc(Oc2cccc(C(=N)N)c2)c1F`, for which affinity was put at a Ki of 14 nM.

`CN1CCN=C1c1cccc(Oc2nc(Oc3cc(C(=N)N)ccc3O)c(F)c(N3CCCC(C(=O)O)C3)c2F)c1` (stereo not drawn) [1-[2-(5-carbamimidoyl-2-hydroxyphenoxy)-3,5-difluoro-6-[3-(1-methyl-4,5-dihydro-1H-imidazol-2-yl)phenoxy]pyridin-4-yl]piperidine-3-carboxylic acid] came in with a Ki of 0.11 nM. Consider `[H]/N=C(/C)N1CCC(Oc2ccc3c4ccccc4n(Cc4ccc5ccc(C(=N)N)cc5c4)c3c2)CC1` [ZK-806450], for which the affinity corresponds to a Ki of 1.6 nM.
